PMC6858497 (The Journal of physiology, 2019)
“And” between values parts separate entries of the source, which are not always exact repeats. Equal entries are not always repeated.

Assays:
Assay in all cases: Two-electrode voltage-clamp recordings, Xenopus oocytes
Assay type in all cases: cell-based
GluN1–1a/2BC1/2DC2 = GluN1–1a/2BC1/2DC2 (Rattus norvegicus, UniProt P35439+Q00959+Q00960+Q62645, A876H/F846L/G856D/H848F/K857R/M851T/M860L/Q845K/R869K/V861L/V866F); details: at 10 μM; relative to control; isoform 1a
GluN1–1a/2D = GluN1–1a/2D (Rattus norvegicus, UniProt P35439+Q62645); details: at 10 μM; relative to control; isoform 1a
GluN1–1a/2D, sequence (Q62645 28-1323, other chains not shown): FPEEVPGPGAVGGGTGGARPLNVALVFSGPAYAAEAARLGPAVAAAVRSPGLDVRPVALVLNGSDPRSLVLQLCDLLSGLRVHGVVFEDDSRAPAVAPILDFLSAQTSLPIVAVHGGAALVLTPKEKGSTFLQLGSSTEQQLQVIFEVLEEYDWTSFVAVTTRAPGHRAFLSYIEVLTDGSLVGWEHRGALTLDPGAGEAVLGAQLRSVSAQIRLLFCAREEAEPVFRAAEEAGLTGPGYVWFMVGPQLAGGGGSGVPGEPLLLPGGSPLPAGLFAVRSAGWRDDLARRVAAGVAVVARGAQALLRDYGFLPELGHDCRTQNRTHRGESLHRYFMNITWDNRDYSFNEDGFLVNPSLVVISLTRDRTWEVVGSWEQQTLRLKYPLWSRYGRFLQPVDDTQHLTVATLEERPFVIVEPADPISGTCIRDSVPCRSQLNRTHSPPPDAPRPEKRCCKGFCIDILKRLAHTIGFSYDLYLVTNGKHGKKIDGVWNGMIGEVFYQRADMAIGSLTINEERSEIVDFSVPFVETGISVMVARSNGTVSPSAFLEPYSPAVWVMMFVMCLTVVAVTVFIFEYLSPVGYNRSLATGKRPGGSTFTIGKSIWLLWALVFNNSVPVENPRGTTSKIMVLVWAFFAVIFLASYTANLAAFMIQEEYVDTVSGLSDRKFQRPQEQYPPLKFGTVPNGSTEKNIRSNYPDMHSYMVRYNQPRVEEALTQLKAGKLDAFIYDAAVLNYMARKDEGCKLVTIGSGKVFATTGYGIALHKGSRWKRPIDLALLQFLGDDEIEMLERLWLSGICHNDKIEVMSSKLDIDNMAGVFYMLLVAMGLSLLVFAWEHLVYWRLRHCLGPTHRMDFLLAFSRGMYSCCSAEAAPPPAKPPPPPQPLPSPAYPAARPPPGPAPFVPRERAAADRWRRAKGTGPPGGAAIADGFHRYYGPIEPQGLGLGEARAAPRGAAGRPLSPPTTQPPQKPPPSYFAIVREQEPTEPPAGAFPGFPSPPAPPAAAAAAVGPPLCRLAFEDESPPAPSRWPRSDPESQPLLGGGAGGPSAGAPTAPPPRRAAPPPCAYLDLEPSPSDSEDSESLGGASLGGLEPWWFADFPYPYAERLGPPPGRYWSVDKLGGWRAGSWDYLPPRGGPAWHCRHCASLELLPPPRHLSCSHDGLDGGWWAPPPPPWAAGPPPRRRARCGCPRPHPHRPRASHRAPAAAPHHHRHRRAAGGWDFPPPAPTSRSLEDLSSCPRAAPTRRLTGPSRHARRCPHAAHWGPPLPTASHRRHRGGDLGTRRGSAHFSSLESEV

GluN1–1b/2B = GluN1–1b/2B (Rattus norvegicus, UniProt P35439+Q00960); details: at 10 μM; isoform 1b
GluN1–1b/2B, sequence (Q00960 27-1482, other chains not shown): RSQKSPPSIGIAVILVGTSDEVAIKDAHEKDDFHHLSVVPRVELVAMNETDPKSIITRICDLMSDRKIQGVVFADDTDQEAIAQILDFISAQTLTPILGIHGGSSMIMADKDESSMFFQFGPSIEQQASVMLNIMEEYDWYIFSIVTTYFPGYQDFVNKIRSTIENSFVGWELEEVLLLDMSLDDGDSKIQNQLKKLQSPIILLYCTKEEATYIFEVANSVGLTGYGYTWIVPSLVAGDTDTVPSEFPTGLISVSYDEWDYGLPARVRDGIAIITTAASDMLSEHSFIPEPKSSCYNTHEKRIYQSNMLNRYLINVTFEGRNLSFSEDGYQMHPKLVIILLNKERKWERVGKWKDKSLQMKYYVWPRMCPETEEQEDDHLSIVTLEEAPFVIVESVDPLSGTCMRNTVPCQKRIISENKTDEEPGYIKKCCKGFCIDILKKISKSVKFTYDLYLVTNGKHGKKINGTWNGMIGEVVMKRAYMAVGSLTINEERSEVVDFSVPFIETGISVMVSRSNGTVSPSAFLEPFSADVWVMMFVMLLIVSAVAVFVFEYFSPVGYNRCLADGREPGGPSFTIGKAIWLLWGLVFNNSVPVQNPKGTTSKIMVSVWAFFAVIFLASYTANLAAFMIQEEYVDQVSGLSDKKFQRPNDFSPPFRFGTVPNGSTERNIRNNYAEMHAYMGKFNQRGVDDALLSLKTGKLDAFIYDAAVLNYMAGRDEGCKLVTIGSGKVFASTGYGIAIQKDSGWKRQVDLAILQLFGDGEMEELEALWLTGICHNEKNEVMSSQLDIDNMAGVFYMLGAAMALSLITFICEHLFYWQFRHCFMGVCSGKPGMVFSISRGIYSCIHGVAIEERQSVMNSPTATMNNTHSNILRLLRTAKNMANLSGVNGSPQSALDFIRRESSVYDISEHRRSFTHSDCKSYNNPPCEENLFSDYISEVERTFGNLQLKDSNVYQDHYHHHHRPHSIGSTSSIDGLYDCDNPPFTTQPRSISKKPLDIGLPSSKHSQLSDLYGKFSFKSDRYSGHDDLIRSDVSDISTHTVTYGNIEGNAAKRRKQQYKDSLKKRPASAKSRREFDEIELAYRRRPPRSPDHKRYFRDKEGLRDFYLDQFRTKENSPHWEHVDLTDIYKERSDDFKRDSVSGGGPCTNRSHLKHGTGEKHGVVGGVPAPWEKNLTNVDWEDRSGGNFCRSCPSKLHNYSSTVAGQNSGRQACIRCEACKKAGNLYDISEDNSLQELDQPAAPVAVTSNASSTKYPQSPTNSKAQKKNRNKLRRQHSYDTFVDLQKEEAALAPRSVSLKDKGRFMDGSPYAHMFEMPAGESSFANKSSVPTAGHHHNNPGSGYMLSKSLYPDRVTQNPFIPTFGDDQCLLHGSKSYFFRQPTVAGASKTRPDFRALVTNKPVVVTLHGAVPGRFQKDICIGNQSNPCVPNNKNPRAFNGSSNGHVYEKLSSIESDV

GluN1–1b/2BC1/2DC2 = GluN1–1b/2BC1/2DC2 (Rattus norvegicus, UniProt P35439+Q00959+Q00960+Q62645, A876H/F846L/G856D/H848F/K857R/M851T/M860L/Q845K/R869K/V861L/V866F); details: at 10 μM; isoform 1b
GluN1–1b/2D = GluN1–1b/2D (Rattus norvegicus, UniProt P35439+Q62645); details: at 10 μM; isoform 1b
GluN1–1b/2D, sequence (Q62645 28-1323, other chains not shown): as the sequence (Q62645 28-1323, other chains not shown) above

For `COc1ccc(OCC2c3cc(OC)c(OC)cc3CCN2C(=O)c2cccc(Cl)c2)cc1` (centres unmarked) [CIQ], the “Relative Imax” value (GluN1–1a/2BC1/2DC2) was 139% and 139 ± 3%, the “Relative Imax” value (GluN1–1a/2D) was 227% and 227 ± 8% and the “Relative Imax” value (GluN1–1b/2B) was 91% and 91 ± 3%. The “Relative Imax” value (GluN1–1b/2BC1/2DC2) was 115% and 115 ± 3% and the “Relative Imax” value (GluN1–1b/2D) was 197% and 197 ± 8%.
